{"source": "patent US12570685B2", "about": "“2-methoxyestradiol derivatives and medical uses thereof” (INSTITUT PASTEUR KOREA, priority 2019, dated 2026)", "tested_on": "HUVECs", "assay": "Radiation-induced EndMT / stress fiber phenomic screening in HUVECs using the HCS system", "format": "cell-based, human", "settings": "48 hours, compared to IR (control) treated group; for Stress Fiber Pre-: HUVECs pre-treated 1 hour before radiation; for Stress Fiber Pre- / Stress Fiber Post-: Phalloidin; for Stress Fiber Post-: HUVECs treated after 10 Gy irradiation (3 hours)", "method": "We established a phenomic screening platform to measure radiation-induced stress fibers and optimized the conditions for high-throughput screening using HUVEC cells to develop compounds targeting RIPF. […] 2-ME derivatives were prepared and their anti-fibrotic activities were tested in vitro [Table 3] and in vivo mouse models [FIGS. 1 and 2]. […] In this test, HUVECs were pre-treated with 2-ME derivatives at 1 hour before radiation and irradiated with 10 Gy. After 48 hours, HUVECs stained with Phalloidin and Hoechst to assess morphological changes Collagen type 1 (BD Collagen I, 354236, Thermo Fisher Scientific) was diluted in 70% ethanol, and then the collagen solution (400 μg/ml) was dispensed into each 384-well plate (6007550, Perkin Elmer, MA, US). After a 1-hour incubation at room temperature, the wells were rinsed twice with Dulbecco's phosphate-buffered saline. HUVECs were seeded at a density of 7×10^2 cells per well onto collagen-coated, 384-well plates and allowed to attach in complete growth media. Cells were then exposed to 10 Gy radiation at room temperature. After irradiation, the cells were incubated for an additional 3 hours. The compounds were tested at a final concentration of 10 μM in 0.5% dimethyl sulfoxide (DMSO; v/v) using an automated liquid handling system (Hummingbird, Analytik Jena, Jena, DE). After the 48-hour treatment, cells were fixed with 4% paraformaldehyde (w/v). The expression of actin filament was determined by incubation with 488-Phalloidin (1:100, MOP-[…], Thermo Fisher Scientific) using direct immunofluorescence staining. The nuclei were stained using Hoechst 33342 (1:1000, MOP-H3570, Thermo Fisher Scientific) at room temperature. For assay validation, a control run was performed. The low control consisted of three 384-well plates that contained irradiated cells, and the high control consisted of three 384-well plates that contained non-irradiated cells. For detecting and visualizing filamentous actin (F-actin) and nuclei, images were collected using an automated high-content imaging system with a 20× magnifying objective (Operetta, PerkinElmer). The acquired images were analyzed using an in-house software tool and Harmony 3.5.1® high-content imaging (Harmony, PerkinElmer) for segmentation of cells."}
{"smiles": "COc1cc2c(cc1OC(C)=O)CCC1C2CC[C@@]2(C)C1CC[C@@H]2O", "note": "(stereo partly shown) [compound 10]", "values": [{"measurement": "Stress Fiber Pre-", "setting": "10 Gy", "value": "O (there were stress fiber decreasing more than 20% compare to IR (control) treated group)"}, {"measurement": "Stress Fiber Post-", "setting": "10 μM", "value": "O (there were stress fiber decreasing more than 20% compare to IR (control) treated group)"}]}
{"smiles": "COc1cc2c(cc1O)CCC1C2CC[C@]2(C)C(=O)C=CC12", "note": "(stereo partly shown) [compound 2]", "values": [{"measurement": "Cell number", "setting": "HUVECs, 10 Gy, 10 μM", "value": "X (there were more than 10% changes in the cell number compare to IR (control) treated group)"}]}
{"smiles": "COc1cc2c(cc1OC(C)=O)CCC1C2CC[C@@]2(C)C1CC[C@@H]2OC(C)=O", "note": "(stereo partly shown) [compound 5]", "values": [{"measurement": "Stress Fiber Pre-", "setting": "10 Gy", "value": "O (there were stress fiber decreasing more than 20% compare to IR (control) treated group)"}]}
{"smiles": "CCC(=O)Oc1cc2c(cc1OC)C1CC[C@@]3(C)C(CC[C@@H]3O)C1CC2", "note": "(stereo partly shown) [compound 11]", "values": [{"measurement": "Stress Fiber Pre-", "setting": "10 Gy", "value": "O (there were stress fiber decreasing more than 20% compare to IR (control) treated group)"}, {"measurement": "Stress Fiber Post-", "setting": "10 μM", "value": "O (there were stress fiber decreasing more than 20% compare to IR (control) treated group)"}]}
{"smiles": "CCC(=O)Oc1cc2c(cc1OC)C1CC[C@@]3(C)C(CC[C@@H]3OC(=O)CC)C1CC2", "note": "(stereo partly shown) [compound 6]", "values": [{"measurement": "Stress Fiber Pre-", "setting": "10 Gy", "value": "O (there were stress fiber decreasing more than 20% compare to IR (control) treated group)"}]}
